Literature values in publication PMC4424193 (European journal of drug metabolism and pharmacokinetics, 2014).
Where two headings read alike, the source gives them in different places. Each block holds one compound with its values, some of them ahead of it.

Legend:
[1] = rats, single intragastric 50 mg/kg in 2% starch suspension; ref Kaverina (1983)
FAK = details: binding studies; ref Kurenova et al. 2013
[2] = man, single oral 50 mg dose, 24 hr urine collections; ref Chung (1994)
[3] = ref Dirikolu (2009); for Cmax: horse serum
[4] = rat, after 24 hrs; ref Yeh 1990
[5] = humans, ref Yeh et al. 1986; for Cmax: at 0.5 hrs post-dose
[6] = CD1 mice, 44.6 mg/kg IP C4 free base, ref Thudium 2011

- Cmax [1]: 370 ng/mL
- T½ [1]: 14.9 h
- serum concentration at 24 hrs (mean) [1]: 160 ± 10 ng/mL
- plasma Cmax (mean) [6]: 820 ng/mL
- time of peak plasma concentration [6]: 0.67 h
- T½ (mice, 44.6 mg/kg free base IV dose, ref Thudium (2011)): 0.83 ± 0.34 h
- 24 hr concentration (mice, 44.6 mg/kg free base, ref Thudium (2011)): 0 µg/mL
- Bioavailability (mice, oral vs IP routes of administration, previously determined): 15.5%
- Cmax (mouse IV, ref Thudium (2011)): 820 ng/mL
- C4 to FAK dissociation constant (Kd) (FAK): 0.165 µg/mL
Structure (SMILES): CN(C)CCN(Cc1ccc(Cl)cc1)c1ccccn1 [C4, N-[(4-chlorophenyl)-methyl]-N-[2-(dimethylamino)-ethyl]-pyridin-2-amine]

- Cmax ([3]; IV 300 mg/horse, at 5 minutes): 280 ng/mL
- Cmax ([3]; oral 300 mg/horse): 36.6 ng/mL
- half-life (t½) ([3]; horse, IV 300 mg/horse): 1.67 h
- detection in serum at 24 hrs ([3]; horse, either route of administration (IV, oral)): not detected
- Tmax ([3]; horse, oral 300 mg/horse): 0.44 h
Structure (SMILES): COc1ccc(CN(CCN(C)C)c2ccccn2)cc1 [Pyrilamine, pyrilamine]
- parent compound in urine [2]: no parent compound was observed in the urine

- dose recovered unchanged in urine [4]: 2-3%
- Cmax ([5]; 50 mg intramuscular): 105 ng/mL
- t½ ([5]; 50 mg intramuscular): 2.9 ± 0.25 h
- Cmax ([5]; 100 mg intramuscular): 194 ng/mL
- t½ ([5]; 100 mg intramuscular): 4.4 ± 1.3 h
Structure (SMILES): CN(C)CCN(Cc1ccccc1)c1ccccn1 [tripelennamine]
